From article PMC10994559 (PLOS Neglected Tropical Diseases, 2024)
Read-outs that look alike come from different tables or passages of the source.

What was measured:
[1] = test system: L. major promastigotes; experiment: L. major promastigote viability, resazurin reduction; format: cell-based, Leishmania major; details: Leishmania major
Text: (§1) The infectivity of the parasites was boosted by passaging in Balb/c mice and culturing the infected lymph nodes after six weeks. L. infantum (MHOM / BR / 76 / M4192) parasite was passaged in the same media formulation with 0.5% urine.

[2] = test system: L. infantum promastigotes; experiment: L. infantum promastigote viability, resazurin reduction; format: cell-based, Leishmania infantum; details: Leishmania infantum
Text: as §1

[3] = test system: L. major axenic amastigotes; experiment: L. major axenic amastigote viability, resazurin reduction; details: Leishmania major
Method: L. major LV561(MHOM/IL/67/LRC-L137 JERICHO II) amastigotes were passaged in Grace insect medium supplemented with NaHCO3, 0.1% amikin and 20% of FCS (pH: 5.4) and kept at 33°C.
Exponential growth phase promastigotes of L. major or L. infantum and axenic amastigotes (L. major) were harvested and seeded in 384 well plates (white, non-transparent, tissue culture treated, flat bottom; Corning) (0.5x10^5 cells per well). Compounds were pre-dispensed into the plate with an Echo 650 acoustic dispenser (Beckman Coulter). After 72h incubation, resazurin was added (1:10 v/v) from a […] stock in PBS, followed by incubation for six hours. Then, fluorescence intensity was measured using a microplate reader (Synergy H1, BioTek) with excitation filter: 550 nm and emission filter: 590 nm. Efficient compounds were selected for the next round of viability assay with 2.5 μM concentrations of the compounds. […] All experiments were performed with AmB as a positive control drug in parallel.
Axenic amastigotes, the relevant form that persists in the infected host, were generated in the lab through established procedures, employing harsh pH (pH 5) and high temperature (33°C) conditions.

[4] = test system: T. brucei brucei BSF; experiment: T. brucei BSF viability, resazurin reduction; format: cell-based, Trypanosoma brucei brucei; details: for EC50: ± SD (Table 2) / ± SE (S3 Table)
Method: T. brucei brucei (strain 427 Lister) blood stream form (BSF) parasites were passaged in complete HMI-9 media supplemented with 10% FCS, Pen-Strep (0.1%) and 2-mercaptoethanol (0.014 v/v) and kept in a 37° C CO2 incubator in filter-cap flasks.
(§2) Viability of T. brucei brucei BSF and T. cruzi trypomastigotes was assayed with fluorescence resazurin reduction assay, essentially as described above. […] Next, selected compounds were tested at 2.5 μM concentration, and promising compounds subjected to 18 concentrations dose response analyses. AN3057 and AmB were used as a control drug in T. brucei and T. cruzi, respectively.

[5] = test system: T. cruzi trypomastigotes; experiment: T. cruzi viability, resazurin reduction; format: cell-based, Trypanosoma cruzi; details: Trypanosoma cruzi
Method: T. cruzi (Y strain) trypomastigotes were passaged in liver infusion broth media supplemented with tryptose, NaCl, Na2HPO4, KCl, glucose, hemin, Pen-Strep (1%), 10% FCS (pH: 7.2) and kept at 28°C.
as §2

[6] = test system: E. histolytica; experiment: E. histolytica viability, ATP luminescence (Cell titer glo); format: cell-based, Entamoeba histolytica; details: Entamoeba histolytica
Method: Entamoeba histolytica (strain B2-5) was passaged in TY-1 medium (Trypticase peptone BBL, Yeast extract BBL, glucose, NaCl, K2HPO4, KH2PO4, cysteine, ascorbic acid, ammonium iron citrate, adult bovine serum, Diamond tween 80, penicillin G, amikacin (pH:6.8)) and kept in 37°C incubator in completely filled tubes with closed lid.
Viability of E. histolytica was assayed via a luminescence assay based on ATP quantification in the live cells. Briefly, 2.5x10^4 cell/ml were exposed to 25 μM of compounds in 96 well plates (non-transparent, tissue culture treated, flat bottom; SPL Life Sciences) in triplicate for 48h. Plates were incubated in sealed anaerobic bags (Oxoid AGS) together with an Anaerogen compact bag (Thermo Scientific) and anaerobic indicator (Thermo Scientific) at 37°C. Then, Cell titer glo reagent (Promega) was added to the reaction (1:5) according to manufacturers’ instruction. After 15 min of orbital shaking, followed by 10 min incubation at RT, ATP-bioluminescence was quantified at RT using a Synergy H1 plate reader (Synergy H1, BioTek). Metronidazole was included as control drug in all the assays for E. histolytica. Test compounds indicating significant growth reduction in the primary screen were subjected to potency determination. These secondary screens were essentially carried out as detailed above, but with a 9 to 16-point concentration range of the test compounds spanning 0.01–100 μM.

[7] = Cytotoxicity assay J774, resazurin reduction; format: cell-based, murine; details: mouse, J774 macrophage cells
Method: (§3) Mammalian cell lines (J774 and HepG2) were passaged in RPMI media supplemented with MEM, Pen-Strep (1%) and 10% FCS. Cultures were kept at 37°C incubator with 5% CO2 in filter-cap flasks.
(§4) Murine macrophage cells (J774) and human hepatocyte carcinoma HepG2 cells were seeded at 0.5x10^5 cell/well in 384 well plates in triplicate, exposed to serial dilution of compounds, dispensed using an Echo 650 acoustic dispenser (Labcyte). After incubation for 72 h at 37°C, 5% CO2, cell viability was determined using fluorescence resazurin reduction assay (λEx: 550 nm; λEm: 590 nm).

[8] = test system: intracellular L. infantum amastigotes; experiment: Parasite rescue assay (intramacrophage, J774 infected with L. infantum); format: cell-based, Leishmania infantum; details: J774, 25 µM; intracellular amastigote; read-out: viability, intracellular L. major amastigote (25 µM)
[9] = test system: intracellular L. infantum amastigotes; experiment: as above; format: cell-based, Leishmania infantum; details: Leishmania infantum
Method: After 24 h incubation, cells were washed five times with serum free RPMI and exposed to a serial dilution of test compounds, prepared using an acoustic dispenser (Echo 650, Labcyte), in RPMI (2% FCS). After two days, cells were washed thrice, and 20 μl of 0.05% SDS in RPMI was added upon removal of the supernatant. Upon incubation under orbital shaking for 30 seconds, cell lysis was stopped by addition of 180 μl M199 medium supplemented with 10% FCS. […] Then, fluorescence intensity of the samples was measured with a microplate reader (Synergy H1, BioTek) with λEx: 550 nm and λEm: 590 nm. Percent of viability was calculated according to cell only and media controls.
J774A.1 cells (J774) were infected with L. infantum metacyclic promastigotes. […] After controlled lysis of the infected macrophages, the released parasites were quantified using a resazurin based viability assay.

[10] = test system: Murine macrophage cells (J774); experiment: Cytotoxicity assay J774, resazurin reduction; format: cell-based; details: Mus musculus, J774, 72 h, cytotoxicity, 72 h
Method: as §3, §4

[11] = Trypanosoma brucei, read-out: EC50 T. brucei BSF, dose response, triplicate

For O=C(CCc1ccc(Br)cc1)NC(Cc1ccccc1)C(O)CN1CCN(Cc2ccccc2)CC1 (stereo not shown) [LTC-10], the viability at 25 µM ([1]; 72 h, read-out: viability, L.major promastigote (25 µM)) was 65.1 ± 3.01%, the viability at 25 µM ([1]; 25 µM, read-out: viability, L.major promastigote (25 µM)) was 0.71 ± 1% and the viability at 2.5 µM ([2]; sheet LTC_compound_viability, value ± spread, read-out: viability, L. infantum promastigote (2.5 µM)) was 100.8 ± 0.96%. The viability at 25 µM ([2]; sheet LTC_compound_viability, value ± spread, read-out: viability, L. infantum promastigote (25 µM)) was 0.85 ± 0.33%, the viability at 25 µM ([3]; read-out: viability, L.major amastigote (25 µM)) was 74.2 ± 2.26% and the viability at 2.5 µM ([4]; Trypanosoma brucei, 2.5 µM, read-out: viability, T.brucei (2.5 µM)) was 99.8 ± 6.25%. The viability at 25 µM ([4]; Trypanosoma brucei, read-out: viability, T.brucei (25 µM)) was 2.86 ± 1.31%, the EC50 [4, 11] was 6000 ± 1700 nM and the viability at 2.5 µM ([5]; read-out: viability, T.cruzi (2.5 µM)) was 61.1 ± 6.21%. It also gave a viability at 25 µM ([5]; 25 µM, read-out: viability, T.cruzi (25 µM)) of 21.5 ± 1.69%, an EC50 ([6]; 48 h, 9 to 16-point dose response) of 6500 ± 1700 nM and a viability at 2.5 µM ([6]; read-out: viability, E.histolytica (2.5 µM)) of 73.2 ± 7%. For the same compound, the viability at 25 µM ([6]; read-out: viability, E.histolytica (25 µM)) was 4.28 ± 0.62%, the viability at 72 h, 2.5 µM ([7]; read-out: viability, J774 (2.5 µM)) was 99.9 ± 5.33% and the viability at 72 h, 25 µM ([7]; read-out: viability, J774 (25 µM)) was 2.99 ± 1.94%. The viability at 25 µM [8] was 33.7 ± 12%.
In the case of CC[C@@H](C)[C@H](c1nc2ccccc2n1Cc1cn(-c2c(F)c(F)c(F)c(F)c2F)nn1)N1C(=O)c2ccc(C)cc2C1=O [PHT-80], the viability at 25 µM ([1]; 25 µM, 72 h, vs non-treated cells, read-out: Residual viability, L.major promastigote (25 µM)) is reported as 11.3 ± 1.4%, the viability at 2.5 µM ([2]; 72 h, vs non-treated cells, read-out: Residual viability, L. infantum promastigote (2.5 µM)) is reported as 90.2 ± 3.63% and the viability at 25 µM ([2]; 72 h, vs non-treated cells, ± SD, triplicate, read-out: Residual viability, L. infantum promastigote (25 µM)) is reported as 2.87 ± 0.48%. It also gave a viability at 2.5 µM ([3]; 72 h, read-out: Residual viability, L.major amastigote (2.5 µM)) of 50.9 ± 3.89%, a viability at 25 µM ([3]; 72 h, read-out: Residual viability, L.major amastigote (25 µM)) of 1.7% and an EC50 ([3]; read-out: EC50 L. major axenic amastigote) of 2500 ± 1700 nM. For the same compound, the EC50 ([9]; J774, read-out: EC50 L. infantum rescue assay, intramacrophage (J774), 18 concentrations) was over 10000 nM, the viability at 25 µM ([9]; J774, rescue assay in J774, 25 µM, read-out: Residual viability, intracellular L. infantum amastigote (25 µM)) was 50.6 ± 13.8% and the “Residual viability, T.brucei (2.5 µM)” value ([4]; BSF, 2.5 µM, 72 h) was 3.41±0.28%. It also gave a viability at 25 µM ([4]; Trypanosoma brucei, 72 h, BSF, 72 h, read-out: Residual viability, T.brucei (25 µM)) of -2.86 ± 1.75%, a viability at 2.5 µM ([4]; Trypanosoma brucei, 72 h, read-out: Residual viability, T.brucei (2.5 µM), BSF, 2.5 µM, 72 h) of 3.4% and an EC50 [4, 11] of 400 nM. For the same compound, the EC50 ([4]; read-out: EC50 T. brucei BSF, dose response, triplicate) was 500 nM, the EC50 ([4]; read-out: EC50 T. brucei BSF, dose response, triplicate, listed as PH-80) was 450 nM and the viability at 2.5 µM ([5]; 72 h, 72 h, read-out: Residual viability, T.cruzi (2.5 µM)) was 72.4 ± 2.05%. The viability at 25 µM ([5]; 72 h, read-out: Residual viability, T.cruzi (25 µM), 25 µM, 72 h) was 25.7 ± 3.29%, the viability at 2.5 µM ([6]; 2.5 µM, 48 h, read-out: Residual viability, E.histolytica (2.5 µM)) was 61.8 ± 13.1% and the viability at 25 µM ([6]; 25 µM, 48 h, read-out: Residual viability, E.histolytica (25 µM)) was 45.2 ± 18.6%. The viability at 72 h, 2.5 µM ([7]; cytotoxicity, 72 h, read-out: Residual viability, J774 (2.5 µM)) was 124 ± 4.4%, the viability at 72 h, 25 µM ([7]; cytotoxicity, 72 h, read-out: Residual viability, J774 (25 µM)) was 78.1 ± 6.86% and the EC50 [10] was over 25000 nM.
